Data: patent publication US20100041089A1, “IMPROVED METHOD FOR DETECTING CHEMICAL […]” (priority 2006, published 2010)

Tested on: yeast genes (expressed mRNA)
Test: DNA chip measurement of expressed mRNA of yeast genes after culture with a toxic chemical substance
Type: cell-based, Saccharomyces cerevisiae S288C
Settings: for level of expressed mRNA in the presence of chemical substance / level in the absence of chemical substance: cultured two hours with the chemical substance; for The level of expressed mRNA in the presence of chemical substance/The level of expressed mRNA in the absence of chemical substance: cultured two hours with substance
Experimental: Yeast (Saccharomyces cerevisiae S288C (a SUC2mal mel gap2 CUP1)) were cultured at 25° C. on YPD medium (yeast extract 1%, polypeptone 2%, glucose 2%). One of toxic chemical substances was added to the cell at logarithmic growth phase, and the cell was further cultured for two hours. Cell was cultured without any chemical substance in the same condition, and was used as a control. Concentrations of the chemical substances were defined to inhibit the growth of the yeast but not lead to death.
After the completion of cultivation, the culture was centrifuged to collect the cells. To the cells, sodium acetate buffer (50 mM sodium acetate, 10 mM EDTA, 1% SDS) was added, and the mixture was shaken at 65° C. for five minutes, followed by returning to room temperature, and obtaining the supernatant, which procedure was repeated two times. To the supernatant, ½ amount of a solution of phenol/chloroform (1:1) was added, and the mixture was centrifuged to give a supernatant, an equal amount of chloroform was added, and the mixture was centrifuged to give a supernatant. To the supernatant, an equal amount of isopropanol containing 0.3 M sodium acetate was added, and the mixture was allowed to stand at room temperature for 30 minutes, after which the mixture was centrifuged to give sediment of the whole RNAs. Seventy % ethanol was added to the sediment, and the mixture was again centrifuged to give sediment, which was then dried and dissolved in water. mRNA was isolated from the whole RNAs as followings. In view of the fact that a poly A chain is attached to the 3′ terminus of mRNA, a polynucleotide having a poly T structure which was immobilized on the surface of latex beads was used to trap the mRNA, and then the mRNA was washed and eluted with spine column (Oligotex-dT30<Super>mRNA Purification Kit, Takara). Reverse transcription of the mRNA was conducted with a reverse transcriptase (Super Script II Reverse Transcriptase; catalogue No. 18064-014, GibcoBRL) using fluorescence-labeled nucleotides to give cDNAs that were introduced with Cy3-dUTP or Cy5-dUTP during the reverse transcription.
The labeled cDNAs were dissolved in TE buffer (10 mM Tris-HCl/1 mM EDTA, pH 8.0), and the solution was dropped on the DNA chip containing the whole genes of yeast (DNA Chip Research Inc. Japan) so that the cDNAs were hybridized on the DNA chip at 65° C. for over 12 hours. The fluoresces intensity of the DNA chip was read with a scanner, and the ratio relative to the fluorescence intensity resulting from the absence of chemical substance was estimated as the following, which is shown in Tables 1 to 9.
In the Tables, “Intensity” indicated in the rightmost column is a value of the level of expressed mRNA of each gene in control cells as divided by the average level of the expressions of the whole genes. A gene of which mRNA level is lower in control, and is higher in cases of addition of chemical substance, is especially useful in the detection of toxic substances.
Here, when a ratio of an amount of mRNA expressed in the presence of the chemical substance to an amount of mRNA expressed in the absence of the chemical substance is two or more, then it is considered significant.

[Cl][Cd][Cl] [(2), CdCl2]
The level of expressed mRNA in the presence of chemical substance/The level of expressed mRNA in the absence of chemical substance, yeast gene YBR036C (gene YBR036C, Metabolism protein genes, DNA chip fluorescence ratio): 1.7 | The level of expressed mRNA in the presence of chemical substance/The level of expressed mRNA in the absence of chemical substance, yeast gene YBR298C (gene YBR298C, Metabolism protein genes, DNA chip fluorescence ratio): 1.0 | The level of expressed mRNA in the presence of chemical substance/The level of expressed mRNA in the absence of chemical substance, yeast gene YDL067C (gene YDL067C (mitochondria-located protein gene), yeast cultured two hours with chemical substance, DNA chip fluorescence ratio to control): 1.0 | The level of expressed mRNA in the presence of chemical substance/The level of expressed mRNA in the absence of chemical substance, yeast gene YDL078C (gene YDL078C, Metabolism protein genes, DNA chip fluorescence ratio): 1.1 | The level of expressed mRNA in the presence of chemical substance/The level of expressed mRNA in the absence of chemical substance, yeast gene YDL215C (gene YDL215C, Metabolism protein genes, DNA chip fluorescence ratio): 1.5 | The level of expressed mRNA in the presence of chemical substance/The level of expressed mRNA in the absence of chemical substance, yeast gene YDR079W (gene YDR079W (mitochondria-located protein gene), yeast cultured two hours with chemical substance, DNA chip fluorescence ratio to control): 1.1 | The level of expressed mRNA in the presence of chemical substance/The level of expressed mRNA in the absence of chemical substance, yeast gene YDR297W (gene YDR297W, Metabolism protein genes, DNA chip fluorescence ratio): 0.8 | The level of expressed mRNA in the presence of chemical substance/The level of expressed mRNA in the absence of chemical substance, yeast gene YDR387C (gene YDR387C, Metabolism protein genes, DNA chip fluorescence ratio): 0.9 | The level of expressed mRNA in the presence of chemical substance/The level of expressed mRNA in the absence of chemical substance, yeast gene YGL035C (gene YGL035C, Metabolism protein genes, DNA chip fluorescence ratio): 1.4 | The level of expressed mRNA in the presence of chemical substance/The level of expressed mRNA in the absence of chemical substance, yeast gene YGR062C (gene YGR062C (mitochondria-located protein gene), yeast cultured two hours with chemical substance, DNA chip fluorescence ratio to control): 1.0 | The level of expressed mRNA in the presence of chemical substance/The level of expressed mRNA in the absence of chemical substance, yeast gene YGR287C (gene YGR287C, Metabolism protein genes, DNA chip fluorescence ratio): 1.0 | The level of expressed mRNA in the presence of chemical substance/The level of expressed mRNA in the absence of chemical substance, yeast gene YJL070C (gene YJL070C, Metabolism protein genes, DNA chip fluorescence ratio): 0.9 | The level of expressed mRNA in the presence of chemical substance/The level of expressed mRNA in the absence of chemical substance, yeast gene YJL096W (gene YJL096W (mitochondria-located protein gene), yeast cultured two hours with chemical substance, DNA chip fluorescence ratio to control): 1.0 | The level of expressed mRNA in the presence of chemical substance/The level of expressed mRNA in the absence of chemical substance, yeast gene YJL180C (gene YJL180C (mitochondria-located protein gene), yeast cultured two hours with chemical substance, DNA chip fluorescence ratio to control): 1.6 | The level of expressed mRNA in the presence of chemical substance/The level of expressed mRNA in the absence of chemical substance, yeast gene YKR009C (gene YKR009C, Metabolism protein genes, DNA chip fluorescence ratio): 1.2 | The level of expressed mRNA in the presence of chemical substance/The level of expressed mRNA in the absence of chemical substance, yeast gene YLR295C (gene YLR295C (mitochondria-located protein gene), yeast cultured two hours with chemical substance, DNA chip fluorescence ratio to control): 1.1 | The level of expressed mRNA in the presence of chemical substance/The level of expressed mRNA in the absence of chemical substance, yeast gene YLR351C (gene YLR351C, Metabolism protein genes, DNA chip fluorescence ratio): 1.4 | The level of expressed mRNA in the presence of chemical substance/The level of expressed mRNA in the absence of chemical substance, yeast gene YLR375W (gene YLR375W, Metabolism protein genes, DNA chip fluorescence ratio): 1.5 | The level of expressed mRNA in the presence of chemical substance/The level of expressed mRNA in the absence of chemical substance, yeast gene YMR023C (gene YMR023C (mitochondria-located protein gene), yeast cultured two hours with chemical substance, DNA chip fluorescence ratio to control): 1.3 | The level of expressed mRNA in the presence of chemical substance/The level of expressed mRNA in the absence of chemical substance, yeast gene YMR267W (gene YMR267W (mitochondria-located protein gene), yeast cultured two hours with chemical substance, DNA chip fluorescence ratio to control): 1.8 | The level of expressed mRNA in the presence of chemical substance/The level of expressed mRNA in the absence of chemical substance, yeast gene YMR267W (gene YMR267W, Metabolism protein genes, DNA chip fluorescence ratio): 1.8 | The level of expressed mRNA in the presence of chemical substance/The level of expressed mRNA in the absence of chemical substance, yeast gene YMR278W (gene YMR278W, Metabolism protein genes, DNA chip fluorescence ratio): 1.7 | The level of expressed mRNA in the presence of chemical substance/The level of expressed mRNA in the absence of chemical substance, yeast gene YMR293C (gene YMR293C, Metabolism protein genes, DNA chip fluorescence ratio): 1.5 | The level of expressed mRNA in the presence of chemical substance/The level of expressed mRNA in the absence of chemical substance, yeast gene YNL073W (gene YNL073W (mitochondria-located protein gene), yeast cultured two hours with chemical substance, DNA chip fluorescence ratio to control): 1.4 | The level of expressed mRNA in the presence of chemical substance/The level of expressed mRNA in the absence of chemical substance, yeast gene YNR072W (gene YNR072W, Metabolism protein genes, DNA chip fluorescence ratio): 1.5 | The level of expressed mRNA in the presence of chemical substance/The level of expressed mRNA in the absence of chemical substance, yeast gene YOL096C (gene YOL096C, Metabolism protein genes, DNA chip fluorescence ratio): 1.0 | The level of expressed mRNA in the presence of chemical substance/The level of expressed mRNA in the absence of chemical substance, yeast gene YOR180C (gene YOR180C, Metabolism protein genes, DNA chip fluorescence ratio): 1.1 | The level of expressed mRNA in the presence of chemical substance/The level of expressed mRNA in the absence of chemical substance, yeast gene YOR316C (gene YOR316C (mitochondria-located protein gene), yeast cultured two hours with chemical substance, DNA chip fluorescence ratio to control): 2.5 | The level of expressed mRNA in the presence of chemical substance/The level of expressed mRNA in the absence of chemical substance, yeast gene YOR363C (gene YOR363C, Metabolism protein genes, DNA chip fluorescence ratio): 2.0 | The level of expressed mRNA in the presence of chemical substance/The level of expressed mRNA in the absence of chemical substance, yeast gene YPL040C (gene YPL040C (mitochondria-located protein gene), yeast cultured two hours with chemical substance, DNA chip fluorescence ratio to control): 1.0 | The level of expressed mRNA in the presence of chemical substance/The level of expressed mRNA in the absence of chemical substance, yeast gene YPL134C (gene YPL134C (mitochondria-located protein gene), yeast cultured two hours with chemical substance, DNA chip fluorescence ratio to control): 1.0 | The level of expressed mRNA in the presence of chemical substance/The level of expressed mRNA in the absence of chemical substance, yeast gene YPR184W (gene YPR184W, Metabolism protein genes, DNA chip fluorescence ratio): 1.4 | level of expressed mRNA in the presence of chemical substance / level in the absence of chemical substance (yeast gene YAL018C): 1.9 | The level of expressed mRNA in the presence of chemical substance/The level of expressed mRNA in the absence of chemical substance (yeast gene YAL053W): 0.9 | level of expressed mRNA in the presence of chemical substance / level in the absence of chemical substance (yeast gene YAR047C): 1.7 | level of expressed mRNA in the presence of chemical substance / level in the absence of chemical substance (yeast gene YAR064W): 0.9 | level of expressed mRNA in the presence of chemical substance / level in the absence of chemical substance (yeast gene YBL044W): 2.7 | The level of expressed mRNA in the presence of chemical substance/The level of expressed mRNA in the absence of chemical substance (yeast gene YBL048W): 7.9 | The level of expressed mRNA in the presence of chemical substance/The level of expressed mRNA in the absence of chemical substance (yeast gene YBL107C): 1.1 | level of expressed mRNA in the presence of chemical substance / level in the absence of chemical substance (yeast gene YBR012C): 1.7 | level of expressed mRNA in the presence of chemical substance / level in the absence of chemical substance (yeast gene YBR066C): 1.3 | level of expressed mRNA in the presence of chemical substance / level in the absence of chemical substance (yeast gene YBR124W): 1.4 | level of expressed mRNA in the presence of chemical substance / level in the absence of chemical substance (yeast gene YBR162C): 0.5 | level of expressed mRNA in the presence of chemical substance / level in the absence of chemical substance (yeast gene YBR287W): 1.9 | level of expressed mRNA in the presence of chemical substance / level in the absence of chemical substance (yeast gene YCL042W): 2.5 | level of expressed mRNA in the presence of chemical substance / level in the absence of chemical substance (yeast gene YCL056C): 1.4 | level of expressed mRNA in the presence of chemical substance / level in the absence of chemical substance (yeast gene YCR007C): 1.6 | level of expressed mRNA in the presence of chemical substance / level in the absence of chemical substance (yeast gene YDL046W): 1.4 | The level of expressed mRNA in the presence of chemical substance/The level of expressed mRNA in the absence of chemical substance (yeast gene YDL072C): 1.1 | The level of expressed mRNA in the presence of chemical substance/The level of expressed mRNA in the absence of chemical substance (yeast gene YDL204W): 1.9 | The level of expressed mRNA in the presence of chemical substance/The level of expressed mRNA in the absence of chemical substance (yeast gene YDL222C): 1.1 | level of expressed mRNA in the presence of chemical substance / level in the absence of chemical substance (yeast gene YDR090C): 3.0
